We go through one molecule from publication PMC9960243, “Cytotoxic and Antileishmanial Effects of the Monoterpene β-Ocimene” (Pharmaceuticals, 2023).

Format in all cases: cell-based
Data set [1] is described as follows: Cytotoxic effect on mammalian cells, Vero. Conditions: African green monkey, Vero cells.
Data set [2] deals with macrophages infected with L. amazonensis. In words: Measurement of reactive oxygen species (H2DCFDA). The settings on record: RAW 264.7 macrophages infected with L. amazonensis, 72 h. The protocol: ROS levels, as produced by the macrophages infected with L. amazonensis and treated with β-ocimene, were determined by the H2DCFDA test. Macrophages were infected according to Section 2.5 and treated with β-ocimene (3.12–12.6 µM) for 72 h. At the end of the period, 10 µL of 20 µM H2 DCFDA dye was added. The plate was incubated at 37 °C for 30 min (in the dark), and the fluorescence intensity was measured using a spectrofluorometer (FLx800) with excitation at 485 nm and emission at 528 nm.

Data set [3] deals with RAW 264.7 macrophages. In words: Phagocytosis assay (stained zymosan). Conditions: 3.12–25 μM, 72 h, macrophages not stimulated by L. amazonensis. The protocol:
RAW 264.7 macrophages were plated in a 96-well plate at 10^5 cells per well in 100 μL of DMEM medium containing different concentrations of β-ocimene (3.12–25 μM). The plate was incubated for 72 h at 37 °C and 5% CO2; after which 10 μL of stained zymosan per well was added, and the plate conditioned for 30 min at 37 °C. Then, 100 μL of Baker’s fixative (4% v/v formaldehyde, 2% w/v sodium chloride, and 1% w/v calcium acetate in distilled water) was added to stop phagocytosis, and 30 min later, the plate was washed with 0.9% saline to remove the zymosan not phagocytized by macrophages. Afterwards, the supernatant was removed and 100 μL of extraction solution was added and solubilized in a Kline shaker. Absorbances were measured at 540 nm.

For data set [4], the system named is RAW 264.7 macrophages. In words: Lysosomal activity (neutral red uptake). The settings on record: 12.5 and 25 µM, 72 h, macrophages not stimulated by L. amazonensis. The protocol: RAW 264.7 macrophages were added (10^5 cells per well) to the 96-well plate in 100 μL of DMEM with different concentrations of β-ocimene (3.12–25 μM). The plate was incubated for 72 h at 37 °C and 5% CO2. Afterwards, 10 μL of neutral red 0.2% DMSO solution was added and incubated for 30 min. The supernatant was then removed, and the wells were washed with 0.9% saline at 37 °C, and 100 μL of extraction solution was added to dissolve the neutral red inside the lysosomal secretion vesicles. After 30 min on a Kline shaker, the plate was read at 540 nm.

Data set [5] deals with RAW 264.7 macrophages uninfected and infected with Leishmania amazonensis. Description: Th1/Th2 cytokine (ELISA) and nitric oxide (Griess) production in macrophage supernatants. The settings on record: 72 h. The protocol:
Modulation of Th1 (TNF-α, IL-12), Th2 (IL-10, IL-6), and NO cytokine production was investigated in the supernatants of infected macrophages, whether treated or untreated with β-ocimene. Cytokine concentration (pg/mL) in macrophage supernatants was determined using the ELISA sandwich technique according to the manufacturer’s (eBioscience) instructions, using interpolation with a standard curve of recombinant cytokines. Optical density was read at 450 nm using a microplate spectrophotometer.
Nitrite levels from the supernatants of the infected macrophages, whether treated or untreated with β-ocimene, were used indirectly to estimate NO production. The NO concentration (µM) was determined using the Griess reaction following a previously described methodology, by interpolation with a standard curve with NaNO2.
LPS (1 μg/mL) plus IFN-γ (1000 U/mL) were used as a positive control.
In general terms: An ELISA detects its analyte on a solid surface through an enzyme-linked reagent.

Setting [6] is: RAW 264.7 macrophages infected with L. amazonensis.

In the case of `C=C/C(C)=C/CC=C(C)C` [β-ocimene, beta-3,7-dimethyl-1,3,6-octatriene], in data set [1], the CC50 was found to be 299 ± 7.17 µM. In data set [1] (50 µM), the cytotoxicity at 50 µM amounted to 1.14 ± 0.1%. In data set [1] (100 µM), this molecule yielded a cytotoxicity at 100 µM of 6.04 ± 0.41%. For the same molecule, the cytotoxicity at 200 µM in data set [1] (200 µM) came out at 36.2 ± 4.26%. Also, the cytotoxicity at 400 µM in data set [1] (400 µM) is 69.2 ± 4.9%. The ROS production result in data set [2] was “increase”. In addition, the “phagocytic activity (zymosan particles)” value in the data set on RAW 264.7 macrophages [3] is “no increase in phagocytosis of zymosan particles”. Besides, the “lysosomal volume (neutral red retention)” value with RAW 264.7 macrophages [4] was “increase in the volume of lysosomal vesicles”. Also, in data set [5] (setting [6]), the IL-6 levels result is given as “decrease”, the IL-10 levels entry is listed as “decrease in levels of IL-10”, the IL-12 levels result is “did not affect IL-12 levels” and the NO production entry is listed as “increase”. Further, in data set [5] (setting [6]), the TNF-α production result is “increase in the production of TNF-α”. Moreover, the “cytokine levels of uninfected macrophages compared to the control” value in data set [5] (uninfected RAW 264.7 macrophages) is “no significant differences”.

For orientation: CC50 means the concentration that lowers cell viability or growth by half.
